In patent US20220411372A1, “SMALL-MOLECULE INHIBITORS FOR THE B-CATENIN/B-CELL LYMPHOMA 9 PROTEIN-PROTEIN INTERACTION” (H. Lee Moffitt Cancer Center and Research Institute, Inc., priority 2019, published 2022):
pKi: −log10 of the molar value. Like-named read-outs stand apart in the source and are kept apart here.

Target: T1, β-catenin/BCL9 PPI (Homo sapiens, UniProt P35222)
T1 construct: Full-length β-catenin (residues 1-781) were cloned into a pET-28b vector; made in house; host or cells: E. coli BL21 DE3 (β-catenin); BCL9 peptide synthesized by InnoPep Inc
T1 sequence (P35222 1-781): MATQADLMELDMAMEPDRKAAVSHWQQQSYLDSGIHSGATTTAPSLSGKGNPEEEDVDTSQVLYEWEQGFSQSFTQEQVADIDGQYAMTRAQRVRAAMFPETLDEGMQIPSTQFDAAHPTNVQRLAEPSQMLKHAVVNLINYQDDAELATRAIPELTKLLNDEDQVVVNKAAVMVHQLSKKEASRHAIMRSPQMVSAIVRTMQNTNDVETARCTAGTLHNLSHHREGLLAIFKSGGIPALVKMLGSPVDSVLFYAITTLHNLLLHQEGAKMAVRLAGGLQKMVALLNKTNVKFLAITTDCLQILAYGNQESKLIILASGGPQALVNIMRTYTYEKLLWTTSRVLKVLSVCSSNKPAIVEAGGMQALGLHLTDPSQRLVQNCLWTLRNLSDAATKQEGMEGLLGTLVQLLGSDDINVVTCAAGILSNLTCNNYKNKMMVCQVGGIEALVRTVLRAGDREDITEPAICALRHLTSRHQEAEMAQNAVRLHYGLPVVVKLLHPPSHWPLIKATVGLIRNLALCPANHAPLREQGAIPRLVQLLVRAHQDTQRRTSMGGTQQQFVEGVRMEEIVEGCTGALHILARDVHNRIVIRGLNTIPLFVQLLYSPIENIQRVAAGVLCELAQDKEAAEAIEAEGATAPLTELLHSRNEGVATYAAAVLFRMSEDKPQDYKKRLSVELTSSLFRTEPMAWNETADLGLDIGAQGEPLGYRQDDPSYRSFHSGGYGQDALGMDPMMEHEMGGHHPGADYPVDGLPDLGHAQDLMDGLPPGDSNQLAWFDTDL
Assay: AlphaScreen competitive inhibition assay of the β-catenin/BCL9 PPI
Assay type: binding
Protocol: AlphaScreen Assays of β-Catenin and BCL9 Interaction. Experiments were performed in white opaque 384-well plates from PerkinElmer (Waltham, Mass.), and the samples were read on a Synergy 2 plate reader (Biotek, Winooski, Vt.) with excitation at 680 nm and emission at 570 nm. The standard AlphaScreen protocol was used with a sensitivity setting of 200. All dilutions were made in 1× assay buffer containing 25 mM Hepes (pH 7.4), 100 mM NaCl, 0.01% Triton X-100 and 0.1% BSA to minimize nonspecific interactions.
For the β-catenin/BCL9 assay, 5 nM biotinylated BCL9 and 40 nM His6-tagged β-catenin were incubated in assay buffer at 4° C. for 30 min. For the β-catenin/E-cadherin assay, 10 nM biotinylated human E-cadherin, and 40 nM His6-tagged human β-catenin were added and incubated in assay buffer at 4° C. for 30 min. Different concentrations of the tested inhibitor were added and incubated in 20 μL assay buffer at 4° C. for another 1 h. All of the assay plates were covered and gently mixed on an orbital shaker. The donor and acceptor beads were then added to the plates to a final concentration of 10 μg/mL in […]. The mixture was incubated for 1 h at 4° C. before detection. The IC50 value was determined by nonlinear least-square analysis of GraphPad Prism 5.0. […] All of the experiments were performed in triplicate and carried out in the presence of 1% DMSO for small-molecule inhibitors. Each compound was assayed at least by two independent experiments. The results were expressed as mean±standard deviation. The inhibitor selectivity for β-catenin/BCL9 over β-catenin/E-canderin interactions was defined as the ratio of the respective Ki value of β-catenin/E-cadherin interactions over that of β-catenin/BCL9 interactions.

[1] = Table 5, inhibitors 54-62, read-out: Ki
[2] = Table 8, inhibitors 82-92, read-out: Ki
[3] = Table 10, inhibitors 99-106, racemic, read-out: Ki ± SD
[4] = Table 2, inhibitors 15-26, read-out: Ki
[5] = Table 3, inhibitors 27-43, read-out: Ki
[6] = Table 4, right half, inhibitors 49-53, read-out: Ki ± SD
[7] = Table 1, inhibitors 1-14, read-out: Ki

For `CC(C)(Oc1cccc(N2CCC[C@@H](C(=O)N(Cc3ccc(-c4cn[nH]c4)cc3)C3CC3)C2)c1)C(=O)N1CC2(CNC2)C1` [Compound 62, (R)-6-(2-(3-(3-((4-(1H-pyrazol-4-yl)benzyl)(cyclopropyl)carbamoyl)piperidin-1-yl)phenoxy)-2-methylpropanoyl)-2,6-diazaspiro[3.3]heptan-2-ium 2,2,2-trifluoroacetate], the pKi [1] was > 4.05.
With `CC(C)(Oc1cncc(N2CCC[C@@H](C(=O)N(Cc3ccc(-c4cn[nH]c4)cc3)C3CC3)C2)c1)C(=O)N1CCNCC1` [Compound 112, (R)-4-(2-((5-(3-((4-(1H-pyrazol-4-yl)benzyl)(cyclopropyl)carbamoyl)piperidin-1-yl)pyridin-3-yl)oxy)-2-methylpropanoyl)piperazin-1-ium chloride] the pKi (Table 12, inhibitors 109-112, read-out: Ki) was ≥ 4.52.
In the case of `O=C(C(Cc1ccccc1)Oc1cccc(N2CCC[C@@H](C(=O)N(Cc3ccc(-c4cn[nH]c4)cc3)C3CC3)C2)c1)N1CCNCC1` (stereo partly drawn) [Compound 87, 4-(2-(3-((R)-3-((4-(1H-pyrazol-4-yl)benzyl)(cyclopropyl)carbamoyl)piperidin-1-yl)phenoxy)-3-phenylpropanoyl)piperazin-1-ium chloride], the pKi [2] was > 4.05.
With `Cn1nccc1-c1ccc(CN(C(=O)C2CCCN(c3cccc(OC(C)(C)C(=O)O)c3)C2)C2CC2)cc1` (racemic) [Compound 102, 2-(3-(3-(cyclopropyl(4-(1-methyl-1H-pyrazol-5-yl)benzyl)carbamoyl)piperidin-1-yl)phenoxy)-2-methylpropanoic acid] the pKi [3] was < 4.05.
For `CC(C)(Oc1cccc(N2CCC[C@@H](C(=O)N(Cc3ccc(-c4cn[nH]c4)cc3)C3CC3)C2)c1)C(=O)N1CCCNCC1` [Compound 54, (R)-4-(2-(3-(3-((4-(1H-pyrazol-4-yl)benzyl)(cyclopropyl)carbamoyl)piperidin-1-yl)phenoxy)-2-methylpropanoyl)-1,4-diazepan-1-ium chloride], the pKi [1] was > 5.00.
For `CC(C)(Oc1cccc(N2CCCC(C(=O)N(Cc3ccc(-c4ccsc4)cc3)C3CC3)C2)c1)C(=O)O` (racemic) [Compound 104, 2-(3-(3-(cyclopropyl(4-(thiophen-3-yl)benzyl)carbamoyl)piperidin-1-yl)phenoxy)-2-methylpropanoic acid], the pKi [3] was ≥ 4.52.
For `CC(C)c1ccc(COC(=O)[C@@H]2CCCN(c3cccc(OC(C)(C)C(=O)N4CCNCC4)c3)C2)cc1` [Compound 15, (R)-4-(2-(3-(3-(((4-isopropylbenzyl)oxy)carbonyl)piperidin-1-yl)phenoxy)-2-methylpropanoyl)piperazin-1-ium chloride], the pKi [4] was ≥ 5.00.
In the case of `CC(C)(Oc1cccc(N2CCC[C@@H](C(=O)N(Cc3ccc(-c4cn[nH]c4)cc3)C3CC3)C2)c1)C(=O)N1CC2(CCNCC2)C1` [Compound 60, (R)-2-(2-(3-(3-((4-(1H-pyrazol-4-yl)benzyl)(cyclopropyl)carbamoyl)piperidin-1-yl)phenoxy)-2-methylpropanoyl)-2,7-diazaspiro[3.5]nonan-7-ium 2,2,2-trifluoroacetate], the pKi [1] was > 4.52.
`CCN(Cc1ccc(C(C)C)cc1)C(=O)[C@H]1CCCN(c2cccc(OC(C)(C)C(=O)N3CCNCC3)c2)C1` [Compound 22, (S)-4-(2-(3-(3-(ethyl(4-isopropylbenzyl)carbamoyl)piperidin-1-yl)phenoxy)-2-methylpropanoyl)piperazin-1-ium chloride] was tested, and the pKi [4] was ≥ 4.52.
For `CC(C)(Oc1cccc(N2CCC[C@@H](C(=O)N(Cc3ccc(-c4cn[nH]c4)cc3)C3CC3)C2)c1)C(=O)N1CCOCC1` [Compound 56, (R)-N-(4-(1H-pyrazol-4-yl)benzyl)-N-cyclopropyl-1-(3-((2-methyl-1-morpholino-1-oxopropan-2-yl)oxy)phenyl)piperidine-3-carboxamide], the pKi [1] was < 4.05.
In the case of `O=C(C(Oc1cccc(N2CCC[C@@H](C(=O)N(Cc3ccc(-c4cn[nH]c4)cc3)C3CC3)C2)c1)c1ccccc1)N1CCNCC1` (stereo partly drawn) [Compound 86, 4-(2-(3-((R)-3-((4-(1H-pyrazol-4-yl)benzyl)(cyclopropyl)carbamoyl)piperidin-1-yl)phenoxy)-2-phenylacetyl)piperazin-1-ium chloride], the pKi [2] was > 4.52.
For `CC(C)(Oc1cccc(N2CCC[C@@H](C(=O)N(Cc3ccc(-c4ccccn4)cc3)C3CC3)C2)c1)C(=O)N1CCNCC1` [Compound 33, (R)-4-(2-(3-(3-(cyclopropyl(4-(pyridin-2-yl)benzyl)carbamoyl)piperidin-1-yl)phenoxy)-2-methylpropanoyl)piperazin-1-ium chloride], the pKi [5] was > 4.05.
In the case of `CC(C)(Oc1cccc(N2CCC[C@@H](C(=O)N(Cc3ccc(-c4cn[nH]c4)cc3)C3CCCC3)C2)c1)C(=O)N1CCNCC1` [Compound 50, (R)-4-(2-(3-(3-((4-(1H-pyrazol-4-yl)benzyl)(cyclopentyl)carbamoyl)piperidin-1-yl)phenoxy)-2-methylpropanoyl)piperazin-1-ium chloride], the pKi [6] was > 5.00.
In the case of `CC(C)(Oc1cccc(N2CCC[C@@H](C(=O)N(Cc3ccc(C4CCCCC4)cc3)C3CC3)C2)c1)C(=O)N1CCNCC1` [Compound 29, (R)-4-(2-(3-(3-((4-cyclohexylbenzyl)(cyclopropyl)carbamoyl)piperidin-1-yl)phenoxy)-2-methylpropanoyl)piperazin-1-ium chloride], the pKi [5] was ≥ 5.30.
With `CC(C)(Oc1cccc(N2CCC[C@@H](C(=O)N(Cc3ccc(-c4cn[nH]c4)cc3)C3CC3)C2)c1)C(=O)N1CCC2(CCNC2)C1` (stereo partly drawn) [Compound 59, 7-(2-(3-((R)-3-((4-(1H-pyrazol-4-yl)benzyl)(cyclopropyl)carbamoyl)piperidin-1-yl)phenoxy)-2-methylpropanoyl)-2,7-diazaspiro[4.4]nonan-2-ium chloride] the pKi [1] was > 5.30.
In the case of `CC(C)(Oc1cccc(N2CCC[C@@H](C(=O)N(Cc3ccc(-c4cn[nH]c4)cc3)C3CCCCC3)C2)c1)C(=O)N1CCNCC1` [Compound 51, (R)-4-(2-(3-(3-((4-(1H-pyrazol-4-yl)benzyl)(cyclohexyl)carbamoyl)piperidin-1-yl)phenoxy)-2-methylpropanoyl)piperazin-1-ium chloride], the pKi [6] was > 4.52.
With `CC(C)c1ccc(CNC(=O)[C@H]2CCCN(c3cccc(OC(C)(C)C(=O)O)c3)C2)cc1` [Compound 4, (S)-2-(3-(3-((4-isopropylbenzyl)carbamoyl)piperidin-1-yl)phenoxy)-2-methylpropanoic acid] the pKi [7] was < 4.05.
In the case of `CC(C)c1ccc(COC(=O)[C@H]2CCCN(c3cccc(OC(C)(C)C(=O)O)c3)C2)cc1` [Compound 2, (S)-2-(3-(3-(((4-isopropylbenzyl)oxy)carbonyl)piperidin-1-yl)phenoxy)-2-methylpropanoic acid], the pKi [7] was < 4.05.
In the case of `CCN(Cc1ccc(C(C)C)cc1)C(=O)[C@H]1CCCN(c2cccc(OC(C)(C)C(=O)O)c2)C1` [Compound 8, (S)-2-(3-(3-(ethyl(4-isopropylbenzyl)carbamoyl)piperidin-1-yl)phenoxy)-2-methylpropanoic acid], the pKi [7] was < 4.05.
`Cc1n[nH]cc1-c1ccc(CN(C(=O)[C@@H]2CCCN(c3cccc(OC(C)(C)C(=O)N4CCNCC4)c3)C2)C2CC2)cc1` [Compound 39, (R)-4-(2-(3-(3-(cyclopropyl(4-(3-methyl-1H-pyrazol-4-yl)benzyl)carbamoyl)piperidin-1-yl)phenoxy)-2-methylpropanoyl)piperazin-1-ium chloride] was tested, and the pKi [5] was ≥ 4.30.
With `O=C([C@@H]1CCCN(c2cccc(OC3(C(=O)N4CCNCC4)CCCC3)c2)C1)N(Cc1ccc(-c2cn[nH]c2)cc1)C1CC1` [Compound 83, (R)-4-(1-(3-(3-((4-(1H-pyrazol-4-yl)benzyl)(cyclopropyl)carbamoyl)piperidin-1-yl)phenoxy)cyclopentane-1-carbonyl)piperazin-1-ium chloride] the pKi [2] was > 4.05.
